Assay results as given in patent US4196205A, “3-Acetoxymethyl-7-(iminoacetamido)-cephalosporanic acid derivatives” (priority 1976, dated 1980).
Values after ≈ are worked out from the molar mass of the structure shown. Read-outs that look alike come from different tables or passages of the source.

Assays:
Assay in all cases: MIC, dilution in liquid medium
Assay type in all cases: cell-based
[1] = system: Staphylococcus aureus UC 1 128 Pen-Resistant; details: Staphylococcus aureus, read-out: M.I.C.
Protocol: (§1) The method used was a dilution of a liquid medium where a series of tubes received the same quantity of a sterile nutritive media and increasing doses of the test compounds were placed therein. Then each tube was seeded with a bacterial strain and was incubated for 24 to 48 hours at 37° C. in an oven. The increasing inhibition was determined by transillumination to determine the minimum inhibiting concentration (MIC in […]) and the results are reported in the following Tables.

[2] = system: Klebsiella pneumoniae Exp. 52 145; details: Klebsiella pneumoniae
Protocol: as §1

Enterobacter cloacae 681 = system: Enterobacter cloacae 681
Protocol: as §1

[3] = system: Staphylococcus aureus ATCC 5 638 Pen-Sensible = UC 1061; details: UC 1061 Pen-Sensible
Protocol: as §1

[4] = system: Streptococcus pyogenes A 561; details: Streptococcus pyogenes, read-out: M.I.C.
Protocol: as §1

[5] = system: Escherichia Coli Exp. TO26 B6; details: Escherichia coli
Protocol: as §1

[6] = system: Escherichia Coli Resistant Gentamicine, Tobramycine R 55 123 D; details: Escherichia coli
Protocol: as §1

[7] = system: Klebsiella pneumoniae 2 536 Resistant Gentamicine; details: Klebsiella pneumoniae
Protocol: as §1

[8] = system: Proteus mirabilis (indol-) A 235; details: Proteus mirabilis
Protocol: as §1

[9] = system: Staphylococcus aureus exp. n° 54 146; details: Staphylococcus aureus
Protocol: as §1

[10] = system: Escherichia Coli Resistant Tetracycline ATCC 11 303 = UC 1261; details: Escherichia coli
Protocol: as §1

[11] = system: Escherichia Coli Sensible Tetracycline ATCC 9 637 = 1020; details: Escherichia coli, ST UC 1020
Protocol: as §1

[12] = system: Bacillus subtilis ATCC 6 633; details: Bacillus subtilis
Protocol: as §1

[13] = system: Salmonella typhimurium 420; details: Salmonella enterica, TYPHIMURIUM
Protocol: as §1

CC(=O)OCC1=C(C(=O)O)N2C(=O)[C@@H](NC(=O)/C(=N/O)c3csc(N)n3)[C@H]2SC1 [3-acetoxymethyl-7-[2-(2amino-4-thiazolyl)-2-hydroxyiminoacetamido]-ceph-3-eme-4-carboxylic acid]
MIC ([1]; UC1, 24 h): 10 mg/L (≈ 22.7 µM) | MIC ([1]; UC1, 48 h): 10 mg/L (≈ 22.7 µM) | MIC ([2]; EXP.52145, 24 h, 24 H, read-out: M.I.C.): 0.6 mg/L (≈ 1.36 µM) | MIC ([2]; EXP.52145, 48 h, 48 H): 0.6 mg/L (≈ 1.36 µM) | MIC (Enterobacter cloacae 681; Enterobacter cloacae, 681, 24 h): 40 mg/L (≈ 90.6 µM) | MIC (Enterobacter cloacae 681; Enterobacter cloacae, 681, 48 h): 40 mg/L (≈ 90.6 µM) | MIC ([3]; 24 h): 5 mg/L (≈ 11.3 µM) | MIC ([3]; 48 h): 5 mg/L (≈ 11.3 µM) | MIC ([4]; A561, 24 h, 24 H): 0.5 mg/L (≈ 1.13 µM) | MIC ([4]; A561, 48 h, 48 H): 0.5 mg/L (≈ 1.13 µM) | MIC ([5]; 24 h): 2 mg/L (≈ 4.53 µM) | MIC ([5]; 48 h): 2 mg/L (≈ 4.53 µM) | MIC ([6]; 24 h): 5 mg/L (≈ 11.3 µM) | MIC ([6]; 48 h, RG R55 123D, read-out: M.I.C.): 10 mg/L (≈ 22.7 µM) | MIC ([7]; 24 h): 20 mg/L (≈ 45.3 µM) | MIC ([7]; 48 h): 40 mg/L (≈ 90.6 µM) | MIC ([8]; 24 h): 2 mg/L (≈ 4.53 µM) | MIC ([8]; 48 h): 2 mg/L (≈ 4.53 µM) | MIC ([9]; 24 h): 5 mg/L (≈ 11.3 µM) | MIC ([9]; 48 h, read-out: M.I.C.): 10 mg/L (≈ 22.7 µM) | MIC ([10]; 24 h): 1 mg/L (≈ 2.27 µM) | MIC ([10]; 48 h): 1 mg/L (≈ 2.27 µM) | MIC ([11]; ATCC 9 / UC1020, 24 h, 24 H): 3 mg/L (≈ 6.8 µM) | MIC ([11]; ATCC 9 / UC1020, 48 h, 48 H): 3 mg/L (≈ 6.8 µM) | MIC ([12]; ATCC6, 24 h, 24 H): 2 mg/L (≈ 4.53 µM) | MIC ([12]; ATCC6, 48 h, 48 H): 5 mg/L (≈ 11.3 µM) | MIC ([13]; 24 h): 2 mg/L (≈ 4.53 µM) | MIC ([13]; 48 h): 2 mg/L (≈ 4.53 µM)
